Data on 3 compounds can be found in patent publication US4232006A, “Antibiotic W-10 complex, antibiotic 20561 and antibiotic 20562 as antifungal agents” (Schering Corporation, priority 1978, dated 1980).

A short description of data set [1]: Toxicity (LD50), oral or subcutaneous administration. Format: in vivo.
For data set [2], the system named is Saccharomyces cerevisiae ATCC 9763. Put plainly: Agar diffusion potency assay against standard solution of Antibiotic 20562. Format: cell-based. The procedure:
Peak Antibiotic W-10 Complex production is determined by periodic sampling of the fermentation mixture and by subjecting the samples to an agar diffusion assay using Saccharomyces cerevisiae ATCC 9763 as the test organism. The broths are assayed against a standard solution of Antibiotic 20562 having an assigned potency of 1000 mcg/mg. The standard solution is diluted with 10% potassium phosphate buffer (pH 6.0) to make solutions having antibiotic concentrations of 3.2, 4.0, 5.0, 6.25 and 7.8 mcg/ml. The assay is performed substantially as set forth in the Federal Register, Title 21, Chapter 436.105.
Background: A growth-free zone around the sample is the usual read-out of agar diffusion tests.

Data set [3] deals with Trichophyton mentagrophytes. The data set can be described thus: In vivo topical activity against Trichophyton mentagrophytes skin infection in guinea pigs. The note with it: 1% suspension in polyethylene glycol 400, topical twice daily for ten days from three days after infection. The procedure:
The skin of fifteen guinea pigs is abraided and infected with a standard culture of Trichophyton mentagropytes. The infected animals are then separated into three groups containing five animals each. Suspensions containing 1% of the respective antibiotics in polyethylene glycol 400 are prepared. Two of the three groups are treated topically, twice daily for ten days commencing three days after infection. The third group (controls) remained untreated throughout the test. All of the animals are tested for infection by culture and observed for skin lesions for a total of 21 days.

The test system of data set [4] is Candida albicans. Put plainly: In vivo protection (PD50) of mice intravenously infected with Candida albicans. Also noted: species or system male CF1 mice. The note with it: single dose one hour after i.v. infection, determined 48 hours after infection. The procedure:
The in vivo activity of Antibiotic 20561, Antibiotic 20562 and the Antibiotic W-10 complex are obtained using male CF1 mice (Carworth Famrs) given a single oral or subcutaneous dose one hour after intraveneous infection with sufficient Candida albicans to kill 80% of the infected mice in 48 hours.
PD50 values were determined 48 hours after infection and are as follows: […]

The test system of data set [5] is Candida albicans. The data set can be described thus: MIC in vitro in Sabourraud dextrose broth against strains of Candida albicans. Format: cell-based. The procedure:
Antibiotic 20562 was tested in vitro in Sabourraud dextrose broth against strains of Candida albicans, the Minimum Inhibitory Concentration (MIC) being set forth in Table IV below: […]

For data set [6], the system named is Candida albicans (Wisconsin strain). Put plainly: Topical in vivo activity against Candida albicans intravaginal infection in hamsters. The procedure: Using a culture of Candida albicans (Wisconsin strain), in Sabourrauds dextrose broth, infect intravaginally, five groups of six female hamsters. Forty-eight and seventy-two hours after infection, make smears of the infected animals and culture the smears. […] (96 hours after infection), make additional smears, culture and commence treatment. One group of six animals (controls) receives no treatment and, therefore, remains infected throughout the test. The remaining four groups of animals are treated with Antibiotic 20562, as 1%, 5%, 10% and 15% suspensions, respectively, the vehicle for suspension being administered on a cotton swab. At the end of the three day treatment the 1%, 5% and 10% groups are 60% cured, the 15% group is completely (100%) cured.

A further data set relates to Aeromonas sp. W-10. Put plainly: Resistance of Aeromonas sp. W-10 to antibacterial agents (physiological characteristics). Format: cell-based. The source says:
Based upon the physiological characteristics, morphology and the guanine plus cytosine content of isolated DNA, we have classified the organism as a novel member of the genus Aeromonas. We have designated the bacterium Aeromonas sp. W-10, sometimes referred to herein as Aeromonas W-10, and have deposited the microorganism with the United States Department of Agriculture, Northern Utilization Research and Development Division (NRRL), Peoria, Illinois, from whom subcultures are available. The microorganism has been assigned the numerical designation NRRL B-11053. […]. When observed microscopically, Aeromonas sp. W-10 is seen to be a non-spore forming, gram-negative rod approximately 0.5 to 1.0×1.0-1.5 microns. It occurs singly and is motile by means of a single polar flagellum. The organism is facultatively anaerobic, oxidase positive, capable of reducing nitrates to nitrites, insensitive to the vibriostatic compound 2 4-diamino-6,7-diisopropylpteridine (0/129) with a guanine-cytosine content of DNA at 61%. According to Bergy's Manual of Determinative Bacteriology, 8th Edition, the organism is, on the basis of the data set forth, classified as a member of the genus Aeromonas.
The growth and physiological characteristics of Aeromonas sp. All observations were made after seven (7) days of incubation at 28° C. […]

[7] abbreviates: products of Example 2 step B, precipitated after silica gel chromatography.
[8] abbreviates: products of Example 3 steps C and D.
[9] abbreviates: separated antibiotics, crystalline solids from methanol, vs standard of 1000 mcg/mg.

Converted amounts (≈) assume the structure as drawn. Numbered stars: 1 amine (or outer) side, 2 acyl side, 3 side chain; on linkers, the order of the positions; unused ones are H or OH. Bridge positions count the residues as written; N and C are the ends. Square brackets hold non-standard residues; d marks the D form. Peptide text beside a SMILES is read from it. * marks the point of attachment. NMeT = CN[CH](C(=O)O)[CH](C)O; X1 = CCCCCCCCCCCC(O)CC(=O)*; X2 = CC=C(N[*:1])C(=O)[*:2]; X3 = OCC1OC(*)C(O)C(O)C1O

For orientation: LD50 means the dose at which mortality reaches 50%. High values mean a less toxic substance, low ones a more toxic substance. For `CC=C(NC(=O)CC(O)CCCCCCCCCCC)C(=O)NC1C(=O)NC(C(C)O)C(=O)NC(Cc2ccc(O)cc2)C(=O)NC(=CC)C(=O)NC(CCC(N)=O)C(=O)NCC(=O)N(C)C(C(C)O)C(=O)NC(Cc2cnc[nH]2)C(=O)OC1C` (centres unmarked) [Antibiotic 20561] (X1-[X2]TTY[X2]QG[NMeT]H; ester 2-C; configuration not given here), the LD50 in data set [1] (oral administration) is recorded as 1000 mg/kg; in data set [1] (subcutaneous administration), over 1000 mg/kg. Also, the “Assay (potency by agar diffusion)” value in data set [2] (setting [7]) was 800 µg/mg; in data set [2] (setting [8]), 800 µg/mg; in data set [2] (setting [9]) it was “about 800 mcg/mg”. In data set [3], the “Days to become negative: Culture” value was found to be 4.8 days. For the same compound, the “Days to become negative: Lesion” value in data set [3] is 6.3 days. For the same compound, the PD50 in the data set on Candida albicans [4] (oral administration) is 25 mg/kg; with Candida albicans [4] (subcutaneous administration), 4 mg/kg.

As a reminder, the MIC is the lowest concentration found to suppress growth. Low values mean a more susceptible organism, high ones a less susceptible organism. For `CC=C(NC(=O)CC(O)CCCCCCCCCCC)C(=O)NC1C(=O)NC(C(C)O)C(=O)NC(Cc2ccc(O)cc2)C(=O)NC(=CC)C(=O)NC(CCC(N)=O)C(=O)NCC(=O)N(C)C(C(C)OC2OC(CO)C(O)C(O)C2O)C(=O)NC(Cc2cnc[nH]2)C(=O)OC1C` (centres unmarked) [Antibiotic 20562] (X1-[X2]TTY[X2]QG[NMeT](X3)H; ester 2-C; configuration not given here), the LD50 in data set [1] (oral administration) worked out at 800 mg/kg; in data set [1] (subcutaneous administration), 600 mg/kg. The minimal inhibitory concentration (MIC) against Candida albicans [5] (Candida albicans strain 29), against Candida albicans [5] (Candida albicans strain Bevan), in the data set with Candida albicans [5] (Candida albicans strain Burke), in the data set with Candida albicans [5] (Candida albicans strain Collins), with Candida albicans [5] (Candida albicans strain Fix) and with Candida albicans [5] (Candida albicans strain Lush) was 0.075 µg/mL (≈ 0.0552 µM) each time. The MIC in the data set with Candida albicans [5] (Candida albicans strain Merkel), in the data set on Candida albicans [5] (Candida albicans strain Newcomb), with Candida albicans [5] (Candida albicans strain No. 1), against Candida albicans [5] (Candida albicans strain Raub), in the data set with Candida albicans [5] (Candida albicans strain Sperk) and against Candida albicans [5] (Candida albicans strain Wisconsin) was 0.075 µg/mL (≈ 0.0552 µM) each time. Further, the “Assay (potency by agar diffusion)” value in data set [2] (setting [7]) was 800 µg/mg; in data set [2] (setting [8]), 1000 µg/mg; in data set [2] (setting [9]), “about 1000 mcg/mg”. The “cured at end of three day treatment” value is 60% in data set [6] (1% suspension), 60% in data set [6] (5% suspension), 60% in data set [6] (10% suspension) and 100% in data set [6] (15% suspension). Further, the “Days to become negative: Culture” value in data set [3] stood at 5.8 days. Also, in data set [3], the “Days to become negative: Lesion” value came out at 9.0 days. In addition, the values for the PD50 in the data set on Candida albicans [4] (oral administration) and with Candida albicans [4] (subcutaneous administration) were 25 mg/kg and 4 mg/kg, respectively.

For `CC(C)c1nc2nc(N)nc(N)c2nc1C(C)C` [0/129, 2 4-diamino-6,7-diisopropylpteridine], the “sensitivity of the organism to the vibriostatic compound” value with Aeromonas sp. W-10 is “insensitive”.
